Laboratory results published in ChEMBL document CHEMBL1152527, “Tessaric acid derivatives induce G2/M cell cycle arrest in human solid tumor cell lines” (2009).
The source made the active and inactive calls. The rule behind the calls is not given here.

Key:
Format in all cases: functional
[1] = test system: WiDr; assay: Growth inhibition of human WiDr cells after 48 hrs by sulforhodamine B assay
[2] = test system: T47D; assay: Growth inhibition of human T47D cells after 48 hrs by sulforhodamine B assay
[3] = test system: HBL-100; assay: Growth inhibition of human HBL100 cells after 48 hrs by sulforhodamine B assay; conditions: HBL-100, 48 h
[4] = test system: SW1573; assay: Growth inhibition of human SW1573 cells after 48 hrs by sulforhodamine B assay; conditions: SW1573, 48 h
[5] = test system: A2780; assay: Growth inhibition of human A2780 cells after 48 hrs by sulforhodamine B assay; conditions: A2780, 48 h
[6] = test system: HeLa; assay: Growth inhibition of human HeLa cells after 48 hrs by sulforhodamine B assay
[7] = test system: SW1573; assay: Cell cycle arrest in human SW1573 cells assessed as decrease in accumulation at S phase at 15 uM after 24 hrs by propidium iodide staining-based FACS analysis
[8] = test system: WiDr; assay: Cell cycle arrest in human WiDr cells assessed as accumulation at G2/M phase at 35 uM after 24 hrs by propidium iodide staining-based FACS analysis
[9] = test system: SW1573; assay: Cell cycle arrest in human SW1573 cells assessed as accumulation at G2/M phase at 15 uM after 24 hrs by propidium iodide staining-based FACS analysis
[10] = test system: HeLa; assay: Cell cycle arrest in human HeLa cells assessed as accumulation at G2/M phase at 15 uM after 24 hrs by propidium iodide staining-based FACS analysis
[11] = test system: T47D; assay: Cell cycle arrest in human T47D cells assessed as increase in accumulation at sub G0 phase at 15 to 35 uM treated for 24 hrs measured after 24 hrs of drug washout by propidium iodide staining-based FACS analysis
[12] = test system: WiDr; assay: Cell cycle arrest in human WiDr cells assessed as increase in accumulation at sub G0 phase at 15 to 35 uM treated for 24 hrs measured after 24 hrs of drug washout by propidium iodide staining-based FACS analysis
[13] = test system: HeLa; assay: Cell cycle arrest in human HeLa cells assessed as accumulation at S phase at 35 uM after 24 hrs by propidium iodide staining-based FACS analysis
[14] = test system: SW1573; assay: Cell cycle arrest in human SW1573 cells assessed as accumulation at S phase at 35 uM after 24 hrs by propidium iodide staining-based FACS analysis
[15] = test system: T47D; assay: Cell cycle arrest in human T47D cells assessed as accumulation at G2/M phase at 35 uM after 24 hrs by propidium iodide staining-based FACS analysis
[16] = test system: SW1573; assay: Cell cycle arrest in human SW1573 cells assessed as accumulation at G2/M phase at 35 uM after 24 hrs by propidium iodide staining-based FACS analysis
[17] = test system: WiDr; assay: Cell cycle arrest in human WiDr cells assessed as decrease in accumulation at S phase at 35 uM after 24 hrs by propidium iodide staining-based FACS analysis
[18] = test system: HeLa; assay: Cell cycle arrest in human HeLa cells assessed as accumulation at G2/M phase at 35 uM after 24 hrs by propidium iodide staining-based FACS analysis
[19] = test system: SW1573; assay: Cell cycle arrest in human SW1573 cells assessed as decrease in accumulation at G0/G1 phase at 35 uM after 24 hrs by propidium iodide staining-based FACS analysis
[20] = test system: HeLa; assay: Cell cycle arrest in human HeLa cells assessed as decrease in accumulation at S phase at 15 uM after 24 hrs by propidium iodide staining-based FACS analysis
[21] = test system: T47D; assay: Cell cycle arrest in human T47D cells assessed as decrease in accumulation at S phase at 35 uM after 24 hrs by propidium iodide staining-based FACS analysis
[22] = test system: HeLa; assay: Cell cycle arrest in human HeLa cells assessed as decrease in accumulation at G0/G1 phase at 35 uM after 24 hrs by propidium iodide staining-based FACS analysis

Row | SMILES | pGI50 [1] | GI50 ([1]; read-out: GI50) [µM] | pGI50 [2] | GI50 ([2]; read-out: GI50) [µM] | pGI50 [3] | GI50 ([3]; read-out: GI50) [µM] | pGI50 [4] | GI50 ([4]; read-out: GI50) [µM] | pGI50 [5] | GI50 ([5]; read-out: GI50) [µM] | pGI50 [6] | GI50 ([6]; read-out: GI50) [µM] | GI50 ([1]; read-out: pGI50 (converted)) [µM] | GI50 ([3]; read-out: pGI50 (converted)) [µM] | GI50 ([4]; read-out: pGI50 (converted)) [µM] | GI50 ([5]; read-out: pGI50 (converted)) [µM] | GI50 ([6]; read-out: pGI50 (converted)) [µM] | other results
1 | C=C(C(=O)O)[C@@H]1CC[C@@]2(C)CCC[C@@](C)(O)[C@@H]2C1 [ILICIC ACID] | 4 | > 100 | 4 | > 100 | 4 | > 100 | 4 | > 100 | 4 | > 100 | 4 | > 100 |  |  |  |  |  | 
2 | C=C(C(=O)OC)[C@@H]1CC[C@@]2(C)CCCC(C)=C2C1 |  | 38 | 4.48 | 35 |  | 14 |  | 18 |  | 18 |  | 13 | 4.45 | 4.86 | 4.74 | 4.74 | 4.88 | 
3 | C=C(C(=O)OC)[C@@H]1CC[C@@]2(C)CCC[C@@](C)(O)[C@@H]2C1 [VACHANIC ACID METHYLESTER] | 4 | > 100 | 4 | > 100 | 4.13 | 74 | 4 | > 100 | 4 | > 100 | 4 | > 100 |  |  |  |  |  | 
4 | C=C(C(=O)OC)[C@@H]1CCC2=C[C@H](O)C[C@H](C)[C@@]2(C)C1 |  | 17 |  | 11 |  | 12 |  | 5 |  | 11 |  | 29 | 4.77 | 4.91 | 5.3 | 4.95 | 4.54 | Activity [7]: Active; Activity [8]: Active; Activity [9]: Active; Activity [10]: Active; Activity [11]: Active; Activity [12]: Active; Activity [13]: Active; Activity [14]: Active; GI50 ([2]; read-out: pGI50 (converted)): 4.97 µM; Activity [15]: Active; Activity [16]: Active; Activity [17]: Active; Activity [18]: Active; Activity [19]: Active; Activity [20]: Active; Activity [21]: Active; Activity [22]: Active
5 | O=c1[nH]cc(F)c(=O)[nH]1 [FLUOROURACIL] |  | 50 |  | 29 |  | 5.5 |  | 4.1 |  | 4.4 |  | 19 |  |  |  |  |  | 
